Measurements from publication PMC9331544, “Molecular Physicochemical Properties of Selected Pesticides as Predictive Factors for Oxidative Stress and Apoptosis-Dependent Cell Death in Caco-2 and HepG2 Cells” (International Journal of Molecular Sciences, 2022).
Converted amounts (≈) assume the structure as drawn. “Also recorded” adds a separate entry of the source.

Key:
Caco-2 cells [1] = assay: Intracellular ROS content, DCFDA, flow cytometry; type: cell-based, human; conditions: 24 h
Method: (§1) To assess pesticides-induced oxidative stress, the intracellular content in reactive oxygen species (ROS), content in glutathione (GSH), and lipid peroxidation was quantified by flow cytometry, following the methods described by Domínguez-Perles, et al. and Queiroz, et al.. Briefly, to assess ROS content, cells re-suspended in PBS (from Section 3.3.1) were centrifuged (5 min, 3000 rpm, bench micro-centrifuge) and, after eliminating the supernatant, 200 μL of 10 µM DCFDA solution (prepared in FBS-free DMEM) was added to each sample. After a 45 min incubation at 37 °C (in the dark, in an incubator), cells were centrifuged to remove excess of probe and re-suspended in PBS. Finally, 5 μL of propidium iodide (PI; 50 μg/mL) was added to each sample 3 min before flow cytometry acquisition.

HepG2 cells [2] = assay: Intracellular ROS content, DCFDA, flow cytometry; type: cell-based, human; conditions: HepG2, 75 μM, 24 h
Method: as §1

Caco-2 cells [3] = assay: Glutathione (GSH) content, Mercury Orange, flow cytometry; type: cell-based, human
Method: (§2) To assess GSH content, cells re-suspended in PBS (see Section 3.3.1) were incubated with 40 μM Mercury Orange (1-(4-chloromercuryphenyl-azo-2-naphtol) for 5 min (in the dark, room temperature), as described by du Plessis, et al..

HepG2 cells [4] = assay: as above; type: cell-based, human
Method: as §2

Caco-2 cells [5] = assay: Apoptosis/necrosis, Annexin-V-FITC/PI double staining, flow cytometry; type: cell-based, human
Method: (§3) The samples where then incubated for 20 min at room temperature. After this period, 5 μL of propidium iodide (PI; at 50 μg/mL) solution were added to each sample 3 min before acquisition.

HepG2 cells [6] = assay: as above; type: cell-based, human; conditions: HepG2, 24 h, tested concentrations; listed as IMZ
Method: as §3

Caco-2 cells [7] = conditions: Caco-2, 24 h, ref [34], cited from earlier work
Caco-2 cells [8] = tested on: Caco-2 cells; design: method as in doi:10.1016/j.envpol.2020.114660; conditions: Caco-2, 30 µg/mL (~100 µM), fluorescence microscopy; ref [34]; cited from earlier work
[9] = ref [47],[48],[49],[50]; cited from earlier work
[10] = ref [47],[48],[49],[50]; cited from earlier work; remark: listed apart in the source

## C=CCOC(Cn1ccnc1)c1ccc(Cl)cc1Cl (centres unmarked) [Imazalil, imazalil]
Caco-2 cells [1]; Caco-2, 75 μM
  increase in ROS content compared with control: 2.40 fold
Caco-2 cells [1]; Caco-2, 250 μM
  increase in ROS content compared with control: 6.5 fold
HepG2 cells [2]
  increase in ROS content compared with control: 4.56 fold
Caco-2 cells [3]; Caco-2, 250 μM, 24 h
  increase in GSH content vs control: 1.59 fold
Caco-2 cells [3]; Caco-2, 24 h, tested concentrations
  change in GSH content vs control (in words): dose-dependent increase in GSH content
HepG2 cells [4]; HepG2, 75 μM, 24 h
  increase in GSH content vs control: 1.97 fold
HepG2 cells [4]; HepG2, 24 h, tested concentrations
  change in GSH content vs control (in words): dose-dependent increase in GSH content
Caco-2 cells [5]; Caco-2, 24 h, tested concentrations, listed as IMZ
  apoptosis/necrosis induction (in words): dose-dependent increase in late apoptosis
Caco-2 cells [5]; Caco-2, highest concentration (250 μM), 24 h, Figure 6B
  cells in necrosis: ~ 23%
HepG2 cells [6]
  apoptosis/necrosis induction (in words): dose-dependently increased apoptosis; also recorded: no necrotic events recorded
Caco-2 cells [7]; converted value, read-out: IC50 (cytotoxicity)
  IC50: ~100 µM
Caco-2 cells [7]
  IC50 (cytotoxicity): 30 µg/mL (≈ 101 µM)
Caco-2 cells [8]
  ROS content (in words): increase in ROS content
[9]
  Partition Coefficient n-octanol/water (Log Pow): 4.56
  Water solubility: 1400 µg/mL
[10]
  H-bond (donor count): 0
  H-donor (acceptor count): 2
